Laboratory results reported in US7087629B2, “Heterocyclylaminomethyloxazolidinones as antibacterials” (AstraZeneca AB, priority 1998, dated 2006).
Values after ≈ are worked out from the molar mass of the structure shown.

Assays:
Assay type in all cases: cell-based
[1] = tested on: Staphylococcus aureus MRQR (methicillin resistant quinolone resistant); test: MIC by agar-dilution, Staphylococcus aureus MRQR; details: inoculum 10^4 CFU/spot, 37° C., 24 hours
Procedure: (§1) The following results were obtained on a standard in-vitro test system. The activity is described in terms of the minimum inhibitory concentration (MIC) detemined by the agar-dilution technique with an inoculum size of 10^4 CFU/spot. Typically, compounds are active in the range 0.01 to 256 μg/ml.
(§2) Staphylococci were tested on agar, using an inoculum of 10^4 CFU/spot and an incubation temperature of 37° C. for 24 hours—standard test conditions for the expression of methicillin resistance.

[2] = tested on: Staphylococcus aureus Oxford; test: MIC by agar-dilution, Staphylococcus aureus Oxford; details: inoculum 10^4 CFU/spot, 37° C., 24 hours
Procedure: as §1, §2

[3] = tested on: Staphylococcus aureus Novb. Res (Novobiocin resistant); test: MIC by agar-dilution, Staphylococcus aureus Novb. Res; details: inoculum 10^4 CFU/spot, 37° C., 24 hours
Procedure: as §1, §2

[4] = tested on: Coagulase Negative Staphylococci MR (methicillin resistant); test: MIC by agar-dilution, Coagulase Negative Staphylococci MR; details: inoculum 10^4 CFU/spot, 37° C., 24 hours
Procedure: as §1, §2

[5] = tested on: Bacillus subtilis; test: MIC by agar-dilution, Bacillus subtilis; details: inoculum 10^4 CFU/spot
Procedure: as §1

[6] = tested on: Streptococcus pyogenes C203; test: MIC by agar-dilution, Streptococcus pyogenes C203; details: agar with 5% defibrinated horse blood, 10^4 CFU/spot, 37° C., 5% carbon dioxide, 48 hours
Procedure: as §1, with “μg/ml. Streptococci and enterococci were tested on agar supplemented with 5% defibrinated horse blood, an inoculum of 10^4 CFU/spot and an incubation temperature of 37° C. in an atmosphere of 5% carbon dioxide for 48 hours—blood is required for the growth of some of the test organisms.” for “μg/ml.”

[7] = tested on: Enterococcus faecalis; test: MIC by agar-dilution, Enterococcus faecalis; details: agar with 5% defibrinated horse blood, 10^4 CFU/spot, 37° C., 5% carbon dioxide, 48 hours
Procedure: as §1, with “μg/ml. Streptococci and enterococci were tested on agar supplemented with 5% defibrinated horse blood, an inoculum of 10^4 CFU/spot and an incubation temperature of 37° C. in an atmosphere of 5% carbon dioxide for 48 hours—blood is required for the growth of some of the test organisms.” for “μg/ml.”

[8] = tested on: Coagulase Negative Staphylococci MS (methicillin sensitive); test: MIC by agar-dilution, Coagulase Negative Staphylococci MS; details: inoculum 10^4 CFU/spot, 37° C., 24 hours
Procedure: as §1, §2

MIC [1]: 1 µg/mL (≈ 2.76 µM)
MIC [2]: 0.5 µg/mL (≈ 1.38 µM)
MIC [3]: 1 µg/mL (≈ 2.76 µM)
MIC [4]: 1 µg/mL (≈ 2.76 µM)
MIC [5]: 0.5 µg/mL (≈ 1.38 µM)
MIC [6]: 1 µg/mL (≈ 2.76 µM)
MIC [7]: 2 µg/mL (≈ 5.52 µM)
MIC [8]: 0.5 µg/mL (≈ 1.38 µM)
SMILES: O=C1O[C@@H](CNc2ccon2)CN1c1ccc(N2CCOCC2)c(F)c1 [Example 2, 5(S)-Isoxazol-3-ylaminomethyl-3-(3-fluoro-4-morpholinophenyl)-oxazolidin-2-one]
